Structures can show the parent of a compound that is named as a salt.

These results are taken from US9487510B2, “Substituted heterocyclic acetamides as kappa opioid receptor (KOR) agonists” (Dr. Reddy's Laboratories Ltd., priority 2012, dated 2016).

This assay concerns the target human KOR receptor (Homo sapiens, UniProt P41145). The assay can be described thus: IP-One HTRF assay, potency of KOR agonists, dose-response in transiently transfected COS-7 cells. Type of assay: cell-based.

human KOR receptor, sequence (P41145 whole entry): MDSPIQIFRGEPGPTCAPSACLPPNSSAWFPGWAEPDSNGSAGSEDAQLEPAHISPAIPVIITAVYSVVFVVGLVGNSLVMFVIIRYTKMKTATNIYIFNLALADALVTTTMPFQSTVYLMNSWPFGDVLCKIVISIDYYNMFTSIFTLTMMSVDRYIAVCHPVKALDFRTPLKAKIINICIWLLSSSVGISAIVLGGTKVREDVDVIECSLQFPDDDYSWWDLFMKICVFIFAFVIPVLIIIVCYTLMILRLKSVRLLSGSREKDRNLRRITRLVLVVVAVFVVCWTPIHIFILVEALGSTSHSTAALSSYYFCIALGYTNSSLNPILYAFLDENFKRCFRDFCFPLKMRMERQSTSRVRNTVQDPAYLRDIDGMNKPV

By EC50 is commonly meant the concentration needed to bring the measured effect to its halfway point. Turning to `CN(C)C(=O)c1cccc([C@@H](CN2CC[C@H](O)C2)N(C)C(=O)Cc2ccc3sc(=O)[nH]c3c2)c1` [Example 40, 3-((S)-2-((S)-3-hydroxypyrrolidin-1-yl)-1-(N-methyl-2-(2-oxo-2,3-dihydrobenzo[d]thiazol-5-yl)acetamido)ethyl)-N,N-dimethylbenzamide-2,2,2-trifluoroacetate], the 50% effective concentration (EC50) is ≤ 50 nM.
For `CCN(CC)C(=O)COc1cccc([C@@H](CN2CC[C@H](O)C2)N(C)C(=O)Cc2ccc3c(c2)NC(=O)C3)c1` [Example 41, N-((S)-1-(3-(2-(diethylamino)-2-oxoethoxy)phenyl)-2-((S)-3-hydroxypyrrolidin-1-yl)ethyl)-N-methyl-2-(2-oxoindolin-6-yl)acetamide] the value was ≤ 50 nM; for `CCN(CC)C(=O)COc1cccc([C@@H](CN2CC[C@H](O)C2)N(C)C(=O)Cc2ccc3sc(=O)[nH]c3c2)c1` [Example 42, N-((S)-1-(3-(2-(diethylamino)-2-oxoethoxy)phenyl)-2-((S)-3-hydroxypyrrolidin-1-yl)ethyl)-N-methyl-2-(2-oxo-2,3-dihydrobenzo[d]thiazol-5-yl)acetamide], ≤ 50 nM.
Turning to `CN(C(=O)Cc1ccc2c(c1)NC(=O)C2)[C@H](CN1CC[C@H](O)C1)c1cc(F)cc(-c2nccs2)c1` [Example 43, N-((S)-1-(3-fluoro-5-(thiazol-2-yl)phenyl)-2-((S)-3-hydroxypyrrolidin-1-yl)ethyl)-N-methyl-2-(2-oxoindolin-6-yl)acetamide], the EC50 is ≤ 50 nM.
`CN(C(=O)Cc1ccc2c(c1)NC(=O)C2)[C@H](CN1CC[C@H](O)C1)c1cccc(-c2nnn(C)n2)c1` [Example 44, N-((S)-2-((S)-3-hydroxypyrrolidin-1-yl)-1-(3-(2-methyl-2H-tetrazol-5-yl)phenyl)ethyl)-N-methyl-2-(2-oxoindolin-6-yl)acetamide] returned a 50% effective concentration (EC50) of 51 to 100 nM.
On to `CC(C)(C(=O)N[C@H](CN1CC[C@H](O)C1)c1ccccc1)c1ccc2oc(=O)[nH]c2c1` [Example 55, N-((S)-2-((S)-3-hydroxypyrrolidin-1-yl)-1-phenylethyl)-2-methyl-2-(2-oxo-2,3-dihydrobenzo[d]oxazol-5-yl)propanamide], for which the 50% effective concentration (EC50) is ≤ 50 nM.
`O=C(Cc1ccc2oc(=O)[nH]c2c1)NC(CN1CCCC1)c1cnn(Cc2ccccc2)c1` (centres unmarked) [Example 62, N-(1-(1-benzyl-1H-pyrazol-4-yl)-2-(pyrrolidin-1-yl)ethyl)-2-(2-oxo-2,3-dihydrobenzo[d]oxazol-5-yl)acetamide]: the concentration giving a half-maximal response (EC50) was ≤ 50 nM.
For `CN(C(=O)Cc1ccc2oc(=O)n(Cc3ccccc3)c2c1)[C@H](CN1CCCC1)c1cccc(OCc2ccccc2)c1` [Example 64, (S)-2-(3-benzyl-2-oxo-2,3-dihydrobenzo[d]oxazol-5-yl)-N-(1-(3-(benzyloxy)phenyl)-2-(pyrrolidin-1-yl)ethyl)-N-methylacetamide] the value was ≤ 50 nM.
As for `CN(C(=O)Cc1ccc2oc(=O)n(Cc3cccc(C#N)c3)c2c1)[C@H](CN1CC[C@H](O)C1)c1ccccc1` [Example 66, 2-(3-(3-cyanobenzyl)-2-oxo-2,3-dihydrobenzo[d]oxazol-5-yl)-N-((S)-2-((S)-3-hydroxypyrrolidin-1-yl)-1-phenylethyl)-N-methylacetamide], the figure is ≤ 50 nM; as for `CN(C(=O)Cc1ccc2oc(=O)n(Cc3ccc(C#N)cc3)c2c1)[C@H](CN1CC[C@H](O)C1)c1ccccc1` [Example 75, 2-(3-(4-cyanobenzyl)-2-oxo-2,3-dihydrobenzo[d]oxazol-5-yl)-N-((S)-2-((S)-3-hydroxypyrrolidin-1-yl)-1-phenylethyl)-N-methylacetamide], ≤ 50 nM; as for `CN(C(=O)Cc1ccc2c(c1)NS(=O)(=O)C2)[C@H](CN1CC[C@H](O)C1)c1cccc(-c2nn[nH]n2)c1` [Example 79, N-((S)-1-(3-(1H-tetrazol-5-yl)phenyl)-2-((S)-3-hydroxypyrrolidin-1-yl)ethyl)-2-(2,2-dioxido-1,3-dihydrobenzo[c]isothiazol-6-yl)-N-methylacetamide], ≤ 50 nM.
For the molecule `CN(C(=O)Cc1ccc2c(c1)N(C)S(=O)(=O)C2)[C@H](CN1CC[C@H](O)C1)c1cccc(OCC(=O)O)c1` [Example 80, 2-(3-((S)-2-((S)-3-hydroxypyrrolidin-1-yl)-1-(N-methyl-2-(1-methyl-2,2-dioxido-1,3-dihydrobenzo[c]isothiazol-6-yl)acetamido)ethyl)phenoxy)acetic acid], the EC50 is ≤ 50 nM.
With `CC(C)(C)OC(=O)Cn1c(=O)oc2ccc(CC(=O)N[C@H](CN3CCCC3)c3ccccc3)cc21` [Example 82, (S)-tert-butyl-2-(2-oxo-5-(2-oxo-2-(1-phenyl-2-(pyrrolidin-1-yl)ethylamino)ethyl)benzo[d]oxazol-3(2H)-yl)acetate], the EC50 is ≤ 50 nM.
`O=C(O)Cn1c(=O)oc2ccc(CC(=O)N[C@H](CN3CCCC3)c3ccccc3)cc21` [Example 83, (S)-2-(2-oxo-5-(2-oxo-2-(1-phenyl-2-(pyrrolidin-1-yl)ethylamino)ethyl)benzo[d]oxazol-3(2H)-yl)acetic acid hydrochloride]: the EC50 is ≤ 50 nM.
On to `O=C(O)COc1cccc([C@@H](CN2CCCC2)NC(=O)Cc2ccc3oc(=O)[nH]c3c2)c1` [Example 85, (S)-2-(3-(1-(2-(2-oxo-2,3-dihydrobenzo[d]oxazol-5-yl)acetamido)-2-(pyrrolidin-1-yl)ethyl)phenoxy)acetic acid hydrochloride], for which the EC50 was ≤ 50 nM.
As for `CN(C(=O)Cc1ccc2oc(=O)n(CC(=O)O)c2c1)[C@H](CN1CC[C@H](O)C1)c1ccccc1` [Example 86], the figure is ≤ 50 nM; as for `CN(C(=O)Cc1ccc2oc(=O)[nH]c2c1)C(CN1CC[C@H](O)C1)c1cccc(OCC(=O)O)c1` (stereo partly drawn) [Example 94, (S)-2-(3-(2-(3-hydroxypyrrolidin-1-yl)-1-(N-methyl-2-(2-oxo-2,3-dihydrobenzo[d]oxazol-5-yl)acetamido)ethyl)phenoxy)acetic acid triflouro acetate], ≤ 50 nM; as for `CN(C(=O)Cc1ccc2c(c1)NC(=O)C2)C(CN1CC[C@H](O)C1)c1cccc(OCC(=O)O)c1` (stereo partly drawn) [Example 95, (S)-2-(3-(2-(3-hydroxypyrrolidin-1-yl)-1-(N-methyl-2-(2-oxoindolin-6-yl)acetamido)ethyl)phenoxy) acetic acid hydrochloride], ≤ 50 nM.
With `COC(=O)c1ccc(Cn2c(=O)oc3ccc(CC(=O)N(C)[C@H](CN4CC[C@H](O)C4)c4ccccc4)cc32)cc1` [Example 98, Methyl 4-((5-(2-(((S)-2-((S)-3-hydroxypyrrolidin-1-yl)-1-phenylethyl)(methyl)amino)-2-oxoethyl)-2-oxobenzo[d]oxazol-3(2H)-yl)methyl)benzoate], the 50% effective concentration (EC50) is ≤ 50 nM.
Regarding `CN(C(=O)Cc1ccc2c(c1)NC(=O)C2)[C@H](CN1CC[C@H](O)C1)c1cccc(OCc2nn[nH]n2)c1` [Example 112, N-((S)-1-(3-((2H-tetrazol-5-yl)methoxy)phenyl)-2-((S)-3-hydroxypyrrolidin-1-yl)ethyl)-N-methyl-2-(2-oxoindolin-6-yl)acetamide], the concentration for a half-maximal effect (EC50) is 51 to 100 nM.
As for `O=C1COc2ccc(CC(=O)N[C@H](CN3CCCC3)c3ccccc3)cc2N1` [Example 114, (S)-2-(3-oxo-3,4-dihydro-2H-benzo[b][1,4]oxazin-6-yl)-N-(1-phenyl-2-(pyrrolidin-1-yl)ethyl)acetamide], the figure is ≤ 50 nM; as for `O=C(Cc1ccc2sc(=S)[nH]c2c1)N[C@H](CN1CC[C@H](O)C1)c1ccccc1` [Example 118, N-((S)-2-((S)-3-hydroxypyrrolidin-1-yl)-1-phenylethyl)-2-(2-thioxo-2,3-dihydrobenzo[d]thiazol-5-yl)acetamide], ≤ 50 nM.
For the molecule `O=C1CS(=O)(=O)c2ccc(CC(=O)N[C@H](CN3CCCC3)c3ccccc3)cc2N1` [Example 121, (S)-2-(1,1-dioxido-3-oxo-3,4-dihydro-2H-benzo[b][1,4]thiazin-6-yl)-N-(1-phenyl-2-(pyrrolidin-1-yl)ethyl)acetamide], the EC50 is ≤ 50 nM.
Consider `O=C1CS(=O)(=O)c2ccc(CC(=O)N[C@H](CN3CC[C@H](O)C3)c3ccccc3)cc2N1` [Example 122, 2-(1,1-dioxido-3-oxo-3,4-dihydro-2H-benzo[b][1,4]thiazin-6-yl)-N-((S)-2-((S)-3-hydroxypyrrolidin-1-yl)-1-phenylethyl)acetamide], for which the concentration for a half-maximal effect (EC50) was ≤ 50 nM.
As for `CN(C(=O)Cc1ccc2c(c1)NC(=O)CS2(=O)=O)[C@H](CN1CC[C@H](O)C1)c1cccc(C(F)(F)F)c1` [Example 123, 2-(1,1-dioxido-3-oxo-3,4-dihydro-2H-benzo[b][1,4]thiazin-6-yl)-N-((S)-2-((S)-3-hydroxypyrrolidin-1-yl)-1-(3-(trifluoromethyl)phenyl)ethyl)-N-methylacetamide], the figure is ≤ 50 nM; as for `CN(C(=O)Cc1ccc2c(c1)NC(=O)CS2(=O)=O)[C@H](CN1CC[C@H](O)C1)c1cccc(F)c1` [Example 124, 2-(1,1-dioxido-3-oxo-3,4-dihydro-2H-benzo[b][1,4]thiazin-6-yl)-N-((S)-1-(3-fluorophenyl)-2-((S)-3-hydroxypyrrolidin-1-yl)ethyl)-N-methylacetamide], ≤ 50 nM; as for `CN(C(=O)Cc1ccc2c(c1)NC(=O)CS2(=O)=O)[C@H](CN1CC[C@H](O)C1)C1CCCCC1` [Example 125, N-((S)-1-cyclohexyl-2-((S)-3-hydroxypyrrolidin-1-yl)ethyl)-2-(1,1-dioxido-3-oxo-3,4-dihydro-2H-benzo [b][1,4]thiazin-6-yl)-N-methylacetamide], ≤ 50 nM.
Regarding `COc1cccc([C@@H](CN2CC[C@H](O)C2)N(C)C(=O)Cc2ccc3c(c2)NC(=O)CS3(=O)=O)c1` [Example 126, 2-(1,1-dioxido-3-oxo-3,4-dihydro-2H-benzo[b][1,4]thiazin-6-yl)-N-((S)-2-((S)-3-hydroxypyrrolidin-1-yl)-1-(3-methoxyphenyl)ethyl)-N-methylacetamide], the EC50 is ≤ 50 nM.
For `O=C1CSc2ccc(CC(=O)N[C@H](CN3CCCC3)c3ccccc3)cc2N1` [Example 127, (S)-2-(3-oxo-3,4-dihydro-2H-benzo [b][1,4]thiazin-6-yl)-N-(1-phenyl-2-(pyrrolidin-1-yl)ethyl)acetamide], the EC50 was ≤ 50 nM.
